# Laboratory results as given in US10723699B2 (Hyundai Pharm Co., Ltd., priority 2015, dated 2020).
# Read-outs that look alike come from different tables or passages of the source.
# Biological target: T1, G protein-coupled receptor 119 (GPR-119) (Mesocricetus auratus, UniProt A0A1U8CD06)
# T1 construct: hamster-derived β-cells containing G protein-coupled receptor 119 (GPR-119), HIT-T15 cells; host or cells: HIT-T15 (hamster pancreatic β-cells)
# T1 sequence (A0A1U8CD06 1-334): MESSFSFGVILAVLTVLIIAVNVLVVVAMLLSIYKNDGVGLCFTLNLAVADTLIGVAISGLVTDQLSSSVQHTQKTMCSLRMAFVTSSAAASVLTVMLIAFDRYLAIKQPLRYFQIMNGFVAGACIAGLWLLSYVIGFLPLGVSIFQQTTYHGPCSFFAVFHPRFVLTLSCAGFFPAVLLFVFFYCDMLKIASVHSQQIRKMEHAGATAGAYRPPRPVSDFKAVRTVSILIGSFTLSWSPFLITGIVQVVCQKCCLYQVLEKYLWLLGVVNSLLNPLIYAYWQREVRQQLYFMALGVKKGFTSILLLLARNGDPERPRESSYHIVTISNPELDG
# Experiment: cAMP activity in HIT-T15 cells (cAMP dynamic kit, FRET)
# Assay type: cell-based, hamster
# Procedure: To check whether the cyclohexene derivatives according to the present invention activate cyclic adenosine monophosphate (cAMP), experiments were carried out, as follows.
# The HIT-T15 cells were plated on a 96-well plate at 60,000 cells per well. On the next day of plating, the cells were treated with a varying concentration of each of the example compounds according to the present invention, and incubated at 37° C. for an hour. In this case, each of the treated compounds was used at six concentrations, ranging from 0.0032 to 10 μM, to treat the cells.
# The cyclic adenosine monophosphate (cAMP) activity was measured according to the manufacturer's instruction using a cAMP dynamic kit commercially available from Cis Bio Inc. (Bedford, Mass.). The cells were lysed, and a level of cAMP was determined by a competitive immunoassay using D2-labeled cAMP and a cryptate-labeled anti-cAMP antibody. Fluorescence was read in Flex Station (Molecular Devices). […] Unlabeled cAMP in the cell lysate competed with the D2-labeled cAMP against the cryptate-labeled antibody. Since a decrease in the measured intensity of the FRET signals represents a level of cAMP in the cells, the cAMP activities of the compounds are calculated as a change in FRET signals by adjusting an amount of dimethyl sulfoxide (DMSO).
# [1] = 1 hour at 37° C., six concentrations 0.0032 to 10 μM, read-out: EC50
compound,measurement,setting,value
"CCc1cnc(N2CCC(COc3ccc(C4=CCC(C(=O)N5CCC(O)CC5)CC4)cc3F)CC2)nc1 (stereo not shown) [Example 294, (4-(4-((1-(5-ethylpyrimidin-2-yl)piperidin-4-yl)methoxy)-3-fluorophenyl)cyclohex-3-enyl)(4-hydroxypiperidin-1-yl)methanone]",EC50,[1],23 nM
same,EC50,"Table 2, read-out: EC50 value",≤ 50 nM
"CC(C)c1noc(N2CCC(COc3ccc(C4=CCC(C(=O)N5CC[C@H](F)C5)CC4)cc3F)CC2)n1 (stereo partly drawn) [Example 95, (4-(3-fluoro-4-((1-(3-isopropyl-1,2,4-oxadiazol-5-yl)piperidin-4-yl)methoxy)phenyl)cyclohex-3-enyl)((S)-3-fluoropyrrolidin-1-yl)methanone]",EC50,"Table 2, read-out: EC50 value",≤ 50 nM
"O=C(C1CC=C(c2ccc(OCC3CCN(c4nc(C(F)(F)F)no4)CC3)c(F)c2)CC1)N1CCCC1 (stereo not shown) [Example 435, (4-(3-fluoro-4-((1-(3-(trifluoromethyl)-1,2,4-oxadiazol-5-yl)piperidin-4-yl)methoxy)phenyl)cyclohex-3-enyl)(pyrrolidin-1-yl)methanone]",EC50,[1],13 nM
same,EC50,"Table 2, read-out: EC50 value",≤ 50 nM
"CCc1cnc(N2CCC(COc3ccc(C4=CCC(C(=O)N5CCC(=O)CC5)CC4)cc3F)CC2)nc1 (stereo not shown) [Example 308, 1-(4-(4-((1-(5-ethylpyrimidin-2-yl)piperidin-4-yl)methoxy)-3-fluorophenyl)cyclohex-3-enecarbonyl)piperidin-4-one]",EC50,"EC50 (nM), 1 hour at 37° C., six concentrations 0.0032 to 10 μM",23 nM
same,EC50,"EC50 value, Table 2",≤ 50 nM
"CC(C)(C)OC(=O)N1CCC(COc2ccc(C3=CCC(C(=O)N4CCc5ccccc5C4)CC3)cc2)CC1 (stereo not shown) [Example 239, tert-butyl 4-((4-(4-(1,2,3,4-tetrahydroisoquinoline-2-carbonyl)cyclohex-1-enyl)phenoxy)methyl)piperidine-1-carboxylate]",EC50,"Table 2, read-out: EC50 value",≤ 50 nM
"CCc1cnc(N2CCC(COc3ccc(C4=CCC(C(=O)N5CCC5)CC4)cc3F)CC2)nc1 (stereo not shown) [Example 301, azetidin-1-yl(4-(4-((1-(5-ethylpyrimidin-2-yl)piperidin-4-yl)methoxy)-3-fluorophenyl)cyclohex-3-enyl)methanone]",EC50,[1],19 nM
same,EC50,"Table 2, read-out: EC50 value",≤ 50 nM
"CCc1cnc(N2CCC(COc3ccc(C4=CCC(C(=O)N5CCC(CO)CC5)CC4)cn3)CC2)nc1 (stereo not shown) [Example 354, (4-(6-((1-(5-ethylpyrimidin-2-yl)piperidin-4-yl)methoxy)pyridin-3-yl)cyclohex-3-enyl)(4-(hydroxymethyl)piperidin-1-yl)methanone]",EC50,[1],22 nM
same,EC50,"Table 2, read-out: EC50 value",≤ 50 nM
"CCc1cnc(N2CCC(COc3ccc(C4=CCC(C(=O)N5CCC[C@@H]5CO)CC4)c(F)c3)CC2)nc1 (stereo partly drawn) [Example 427, (4-(4-((1-(5-ethylpyrimidin-2-yl)piperidin-4-yl)methoxy)-2-fluorophenyl)cyclohex-3-enyl)((R)-2-(hydroxymethyl)pyrrolidin-1-yl)methanone]",EC50,[1],32 nM
same,EC50,"Table 2, read-out: EC50 value",≤ 50 nM
"CC(C)c1noc(N2CCC(COc3ccc(C4=CCC(C(=O)N5CCC(CO)CC5)CC4)cc3F)CC2)n1 (stereo not shown) [Example 333, (4-(3-fluoro-4-((1-(3-isopropyl-1,2,4-oxadiazol-5-yl)piperidin-4-yl)methoxy)phenyl)cyclohex-3-enyl)(4-(hydroxymethyl)piperidin-1-yl)methanone]",EC50,[1],30 nM
same,EC50,"Table 2, read-out: EC50 value",≤ 50 nM
"CC(C)(C)OC(=O)N1CCC(COc2ccc(C3=CCC(C(=O)N4CCCC4)CC3)nc2)CC1 (stereo not shown) [Example 312, tert-butyl 4-((6-(4-(pyrrolidine-1-carbonyl)cyclohex-1-enyl)pyridin-3-yloxy)methyl)piperidine-1-carboxylate]",EC50,[1],120 nM
"CCc1cnc(N2CCC(COc3ccc(C4=CCC(C(=O)NCC(F)F)CC4)cc3F)CC2)nc1 (stereo not shown) [Example 314, N-(2,2-difluoroethyl)-4-(4-((1-(5-ethylpyrimidin-2-yl)piperidin-4-yl)methoxy)-3-fluorophenyl)cyclohex-3-enecarboxamide]",EC50,[1],61 nM
"CCc1cnc(N2CCC(COc3ccc(C4=CCC(C(=O)N5CCC(=NO)CC5)CC4)cc3F)CC2)nc1 (stereo not shown) [Example 377, (4-(4-((1-(5-ethylpyrimidin-2-yl)piperidin-4-yl)methoxy)-3-fluorophenyl)cyclohex-3-enyl)(4-(hydroxyimino)piperidin-1-yl)methanone]",EC50,[1],11 nM
same,EC50,"Table 2, read-out: EC50 value",≤ 50 nM
"CCC(F)(F)C(=O)N1CCC(COc2ccc(C3=CCC(C(=O)N4CCOCC4)CC3)cc2F)CC1 (stereo not shown) [Example 439, 2,2-difluoro-1-(4-((2-fluoro-4-(4-(morpholine-4-carbonyl)cyclohex-1-enyl)phenoxy)methyl)piperidin-1-yl)butan-1-one]",EC50,[1],5.9 nM
same,EC50,"Table 2, read-out: EC50 value",≤ 50 nM
"CC(C)c1noc(N2CCC(COc3ccc(C4=CCC(C(=O)N5CCSCC5)CC4)cn3)CC2)n1 (stereo not shown) [Example 318, (4-(6-((1-(3-isopropyl-1,2,4-oxadiazol-5-yl)piperidin-4-yl)methoxy)pyridin-3-yl)cyclohex-3-enyl)(thiomorpholino)methanone]",EC50,[1],38 nM
same,EC50,"Table 2, read-out: EC50 value",≤ 50 nM
"CC(C)(C)OC(=O)N1CCC(COc2ccc(C3=CCC(C(=O)N4CCSCC4)CC3)nc2)CC1 (stereo not shown) [Example 328, tert-butyl 4-((6-(4-(thiomorpholine-4-carbonyl)cyclohex-1-enyl)pyridin-3-yloxy)methyl)piperidine-1-carboxylate]",EC50,[1],21 nM
same,EC50,"Table 2, read-out: EC50 value",≤ 50 nM
"CCc1cnc(N2CCC(COc3ccc(C4=CCC(C(=O)N5CCCC5)CC4)cc3F)CC2)nc1 (single isomer, unassigned; (-)) [Example 429, (−)-(4-(4-((1-(5-ethylpyrimidin-2-yl)piperidin-4-yl)methoxy)-3-fluorophenyl)cyclohex-3-enyl)(pyrrolidin-1-yl)methanone]",EC50,[1],21 nM
same,EC50,"Table 2, read-out: EC50 value",≤ 50 nM
"CCc1cnc(N2CCC(COc3ccc(C4=CCC(C(=O)N5CCCCC5)CC4)c(F)c3)CC2)nc1 (stereo not shown) [Example 426, (4-(4-((1-(5-ethylpyrimidin-2-yl)piperidin-4-yl)methoxy)-2-fluorophenyl)cyclohex-3-enyl)(piperidin-1-yl)methanone]",EC50,[1],6.7 nM
same,EC50,"Table 2, read-out: EC50 value",≤ 50 nM
"CCc1cnc(N2CCC(COc3ccc(C4=CCC(C(=O)NCC(C)(C)CO)CC4)cc3F)CC2)nc1 (stereo not shown) [Example 378, 4-(4-((1-(5-ethylpyrimidin-2-yl)piperidin-4-yl)methoxy)-3-fluorophenyl)-N-(3-hydroxy-2,2-dimethylpropyl)cyclohex-3-enecarboxamide]",EC50,[1],20 nM
same,EC50,"Table 2, read-out: EC50 value",≤ 50 nM
"CCc1cnc(N2CCC(COc3ccc(C4=CCC(C(=O)N5CCN(C(=O)OC(C)(C)C)CC5)CC4)cc3F)CC2)nc1 (stereo not shown) [Example 383, tert-butyl 4-(4-(4-((1-(5-ethylpyrimidin-2-yl)piperidin-4-yl)methoxy)-3-fluorophenyl)cyclohex-3-enecarbonyl)piperazine-1-carboxylate]",EC50,[1],48 nM
same,EC50,"Table 2, read-out: EC50 value",≤ 50 nM
"CCc1cnc(N2CCC(COc3ccc(C4=CCC(C(=O)N5CCN(C)CC5)CC4)cc3F)CC2)nc1 (stereo not shown) [Example 428, (4-(4-((1-(5-ethylpyrimidin-2-yl)piperidin-4-yl)methoxy)-3-fluorophenyl)cyclohex-3-enyl)(4-methylpiperazin-1-yl)methanone]",EC50,[1],70 nM
"CCc1cnc(N2CCC(COc3ccc(C4=CCC(C(=O)N5CC(=O)C5)CC4)cc3F)CC2)nc1 (stereo not shown) [Example 295, 1-(4-(4-((1-(5-ethylpyrimidin-2-yl)piperidin-4-yl)methoxy)-3-fluorophenyl)cyclohex-3-enecarbonyl)azetidin-3-one]",EC50,[1],43 nM
same,EC50,"Table 2, read-out: EC50 value",≤ 50 nM
